Data taken from patent US20260022246A1, “COLORING AGENT COMPOSITION, FILM, OPTICAL FILTER, AND NEAR INFRARED ABSORBING COMPOUND” (FUJIFILM Corporation, priority 2023, published 2026).

Columns and labels:
Assay type in all cases: physicochemical
[1] = Evaluation of absorption spectrum (maximal absorption wavelength in chloroform solution); details: for Near infrared absorbing property: grade of λmax in chloroform solution; for λmax (maximal absorption wavelength): chloroform solution, 3.0×10^−5 mol/L, 1 mm quartz cell
Experimental: The specific compound is diluted with chloroform to a concentration of […], and an absorbance of the obtained sample solution is measured with a spectrophotometer (UV-3600 Plus, manufactured by Shimadzu Corporation) using a 1 mm quartz cell. A maximal absorption wavelength (Amax) is measured from an absorption spectrum of the sample solution.
For each of Exemplary Compounds shown in Tables 1 and 2, a sample solution was prepared by diluting the compound with chloroform to a concentration of 3.0×10^−5 mol/L, and near infrared absorbability was evaluated.
For each sample solution, an absorbance was measured in a 1 mm quartz cell using a spectrophotometer (UV-3600 Plus, manufactured by Shimadzu Corporation).
A maximal absorption wavelength (Amax) was measured from the absorption spectrum of each sample solution. The results are shown in Tables 1 and 2, and the wavelength of Amax was evaluated according to the following standard.
• A: Amax was 1,150 nm or more. • B: Amax was less than 1,150 nm.

[2] = Evaluation of solubility in methyl ethyl ketone (MEK); details: stirred at room temperature for 30 minutes
Experimental: For each of Exemplary Compounds shown in Tables 1 and 2, a predetermined amount of the compound was added to a solvent of methyl ethyl ketone (MEK), and solubility was evaluated according to the following standard by stirring the mixture at room temperature for 30 minutes.
• A: 1 g or more of the compound was stably dissolved in 300 g of MEK. • B: 1 g was not dissolved in 300 g of MEK. • X: decomposition was observed by measuring the absorption spectrum after the dissolution.

[3] = Evaluation of heat stability of polystyrene resin film (hot plate 180° C., 5 minutes); details: polystyrene resin film on glass, hot plate 180° C. for 5 minutes, absorbance reduction rate at λmax
Experimental: 30 mg of each of Exemplary Compounds and the comparative compounds described in the tables was dissolved in 8.9 g of methyl ethyl ketone and 1.1 g of a polystyrene resin (manufactured by Sigma-Aldrich Co. LLC) to prepare a resin composition.
The obtained resin composition was spin-coated on a glass substrate to form a coating film, and the obtained coating film was dried at 60° C. for 2 minutes to produce a resin film. […]
• A: absorbance reduction rate of Amax was less than 5%. • B: absorbance reduction rate of Amax was 5% or more and less than 10%. • C: absorbance reduction rate of Amax was 10% or more and less than 50%. • D: absorbance reduction rate of Amax was 50% or more. • X: solubility was insufficient, so that the film cannot be produced, which was not evaluable.

Compound | Near infrared absorbing property [1] | Solubility in solvent [2] | Heat stability of resin composition [3] | λmax (maximal absorption wavelength) [1] [nm]
Cc1ccc(N(c2ccc(C)cc2)c2ccc([N+](=C3C=CC(=[N+](c4ccc(N(c5ccc(C)cc5)c5ccc(C)cc5)cc4)c4ccc(N(c5ccc(C)cc5)c5ccc(C)cc5)cc4)C=C3)c3ccc(N(c4ccc(C)cc4)c4ccc(C)cc4)cc3)cc2)cc1 [A-1] | A (Amax was 1,150 nm or more) | A (1 g or more of the compound was stably dissolved in 300 g of MEK) | A (absorbance reduction rate of Amax was less than 5%) | –
Cc1cc(C)c(N(c2ccc([N+](=C3C=CC(=[N+](c4ccc(N(c5c(C)cc(C)cc5C)c5c(C)cc(C)cc5C)cc4)c4ccc(N(c5c(C)cc(C)cc5C)c5c(C)cc(C)cc5C)cc4)C=C3)c3ccc(N(c4c(C)cc(C)cc4C)c4c(C)cc(C)cc4C)cc3)cc2)c2c(C)cc(C)cc2C)c(C)c1 [A-3] | A (Amax was 1,150 nm or more) | A (1 g or more of the compound was stably dissolved in 300 g of MEK) | A (absorbance reduction rate of Amax was less than 5%) | –
COc1ccc(N(c2ccc(OC)cc2)c2ccc([N+](=C3C=CC(=[N+](c4ccc(N(c5ccc(OC)cc5)c5ccc(OC)cc5)cc4)c4ccc(N(c5ccc(OC)cc5)c5ccc(OC)cc5)cc4)C=C3)c3ccc(N(c4ccc(OC)cc4)c4ccc(OC)cc4)cc3)cc2)cc1.[O-][Cl+3]([O-])([O-])[O-].[O-][Cl+3]([O-])([O-])[O-] [A-6] | A (Amax was 1,150 nm or more) | A (1 g or more of the compound was stably dissolved in 300 g of MEK) | A (absorbance reduction rate of Amax was less than 5%) | 1248
FC(F)(F)c1ccc(N(c2ccc([N+](=C3C=CC(=[N+](c4ccc(N(c5ccc(C(F)(F)F)cc5)c5ccc(C(F)(F)F)cc5)cc4)c4ccc(N(c5ccc(C(F)(F)F)cc5)c5ccc(C(F)(F)F)cc5)cc4)C=C3)c3ccc(N(c4ccc(C(F)(F)F)cc4)c4ccc(C(F)(F)F)cc4)cc3)cc2)c2ccc(C(F)(F)F)cc2)cc1.[O-][Cl+3]([O-])([O-])[O-].[O-][Cl+3]([O-])([O-])[O-] [A-7] | A (Amax was 1,150 nm or more) | A (1 g or more of the compound was stably dissolved in 300 g of MEK) | A (absorbance reduction rate of Amax was less than 5%) | 1162
CCCCc1ccc(N(c2ccc(CCCC)cc2)c2ccc([N+](=C3C=CC(=[N+](c4ccc(N(c5ccc(CCCC)cc5)c5ccc(CCCC)cc5)cc4)c4ccc(N(c5ccc(CCCC)cc5)c5ccc(CCCC)cc5)cc4)C=C3)c3ccc(N(c4ccc(CCCC)cc4)c4ccc(CCCC)cc4)cc3)cc2)cc1.[O-][Cl+3]([O-])([O-])[O-].[O-][Cl+3]([O-])([O-])[O-] [A-8] | A (Amax was 1,150 nm or more) | A (1 g or more of the compound was stably dissolved in 300 g of MEK) | A (absorbance reduction rate of Amax was less than 5%) | 1210
N#Cc1ccc(N(c2ccc(C#N)cc2)c2ccc([N+](=C3C=CC(=[N+](c4ccc(N(c5ccc(C#N)cc5)c5ccc(C#N)cc5)cc4)c4ccc(N(c5ccc(C#N)cc5)c5ccc(C#N)cc5)cc4)C=C3)c3ccc(N(c4ccc(C#N)cc4)c4ccc(C#N)cc4)cc3)cc2)cc1.[O-][Cl+3]([O-])([O-])[O-].[O-][Cl+3]([O-])([O-])[O-] [A-9] | A (Amax was 1,150 nm or more) | A (1 g or more of the compound was stably dissolved in 300 g of MEK) | A (absorbance reduction rate of Amax was less than 5%) | 1170
N#Cc1ccc(N(c2ccc([N+](=C3C=CC(=[N+](c4ccc(N(c5ccc(C#N)c(F)c5)c5ccc(C#N)c(F)c5)cc4)c4ccc(N(c5ccc(C#N)c(F)c5)c5ccc(C#N)c(F)c5)cc4)C=C3)c3ccc(N(c4ccc(C#N)c(F)c4)c4ccc(C#N)c(F)c4)cc3)cc2)c2ccc(C#N)c(F)c2)cc1F [A-19] | A (Amax was 1,150 nm or more) | A (1 g or more of the compound was stably dissolved in 300 g of MEK) | A (absorbance reduction rate of Amax was less than 5%) | 1165
COc1cc(C)c(N(c2ccc([N+](=C3C=CC(=[N+](c4ccc(N(c5c(C)cc(OC)cc5C)c5c(C)cc(OC)cc5C)cc4)c4ccc(N(c5c(C)cc(OC)cc5C)c5c(C)cc(OC)cc5C)cc4)C=C3)c3ccc(N(c4c(C)cc(OC)cc4C)c4c(C)cc(OC)cc4C)cc3)cc2)c2c(C)cc(OC)cc2C)c(C)c1.[O-][Cl+3]([O-])([O-])[O-].[O-][Cl+3]([O-])([O-])[O-] [A-22] | A (Amax was 1,150 nm or more) | A (1 g or more of the compound was stably dissolved in 300 g of MEK) | A (absorbance reduction rate of Amax was less than 5%) | 1308
COC(=O)c1cccc(N(c2ccc([N+](=C3C=CC(=[N+](c4ccc(N(c5cccc(C(=O)OC)c5)c5cccc(C(=O)OC)c5)cc4)c4ccc(N(c5cccc(C(=O)OC)c5)c5cccc(C(=O)OC)c5)cc4)C=C3)c3ccc(N(c4cccc(C(=O)OC)c4)c4cccc(C(=O)OC)c4)cc3)cc2)c2cccc(C(=O)OC)c2)c1.[O-][Cl+3]([O-])([O-])[O-].[O-][Cl+3]([O-])([O-])[O-] [A-26] | A (Amax was 1,150 nm or more) | A (1 g or more of the compound was stably dissolved in 300 g of MEK) | A (absorbance reduction rate of Amax was less than 5%) | 1232
Cc1ccc(N(c2ccc(C)cc2)c2ccc([N+](=C3C=CC(=[N+](c4ccc(N(c5ccc(C)cc5)c5ccc(C)cc5)cc4)c4ccc(N(c5ccc(C)cc5)c5ccc(C)cc5)cc4)C=C3)c3ccc(N(c4ccc(C)cc4)c4ccc(C)cc4)cc3)cc2)cc1 [A-28] | A (Amax was 1,150 nm or more) | A (1 g or more of the compound was stably dissolved in 300 g of MEK) | A (absorbance reduction rate of Amax was less than 5%) | 1209
Cc1ccc(N(c2ccc(C)cc2)c2ccc([N+](=C3C=CC(=[N+](c4ccc(N(c5ccc(C)cc5)c5ccc(C)cc5)cc4)c4ccc(N(c5ccc(C)cc5)c5ccc(C)cc5)cc4)C=C3)c3ccc(N(c4ccc(C)cc4)c4ccc(C)cc4)cc3)cc2)cc1.F[B-](F)(F)F.F[B-](F)(F)F [A-29] | A (Amax was 1,150 nm or more) | A (1 g or more of the compound was stably dissolved in 300 g of MEK) | A (absorbance reduction rate of Amax was less than 5%) | 1209
Cc1ccc(N(c2ccc(C)cc2)c2ccc([N+](=C3C=CC(=[N+](c4ccc(N(c5ccc(C)cc5)c5ccc(C)cc5)cc4)c4ccc(N(c5ccc(C)cc5)c5ccc(C)cc5)cc4)C=C3)c3ccc(N(c4ccc(C)cc4)c4ccc(C)cc4)cc3)cc2)cc1.F[P-](F)(F)(F)(F)F.F[P-](F)(F)(F)(F)F [A-30] | A (Amax was 1,150 nm or more) | A (1 g or more of the compound was stably dissolved in 300 g of MEK) | A (absorbance reduction rate of Amax was less than 5%) | 1209
